# Test results: patent US20260248826A1, “DRUG COMBINATION FOR TREATMENT OF PANCREATIC CANCER” (priority 2023, published 2026)
# Legend:
# S2-VP10 tumor cells = assay: Orthotopic S2-VP10 pancreatic tumor model in athymic nude mice; type: in vivo
# Experimental: A preclinical study of minnelide was conducted in mice. Female athymic nude mice (NCI nu/nu; 4 to 6 weeks old) were anesthetized with xylazine/ketamine, and S2-VP10 tumor cells embedded in Matrigel were implanted into the pancreatic tail (3×10^5 cells/mouse). Twelve days after tumor implantation (Day 0), animals were randomized to receive saline, nab-paclitaxel plus gemcitabine (Gem/Abx; 250/25 mg/kg), or minnelide plus nab-paclitaxel plus gemcitabine (Minn/Gem/Abx; 0.15/250/25 mg/kg or 0.21/250/25 mg/kg) (10 animals/group). Minnelide was administered once daily (QD) by oral gavage (PO). Treatment continued until Day 28 when animals were sacrificed.
# [1] = Phase 1 study of minnelide given intravenously in patients with Advanced GI Tumors; type: in vivo, human; conditions: IV
# Excerpt: Intravenous Minnelide. Phase 1, Multi-Center, Open-Label, Dose-Escalation, Safety, Pharmacokinetic, and Pharmacodynamic Study of minnelide given intravenously daily for 21 days followed by 7 days off schedule in patients with Advanced GI Tumors. A second dosing schedule of minnelide given intravenously QD for 5 days with 2 days off for three weeks followed by a 7-day rest period was also explored during this study. A total of 45 patients enrolled in the Phase 1 study, however 3 patients were not dosed with study drug. The remaining 42 patients were dosed in the study. The primary reason for the discontinuation of treatment was disease progression. There were 6 deaths in the study, but these occurred after the study drug had ended and were within the 30-day follow-up period. […] One patient who died from respiratory failure, and this was also found to be not related to use of the study drug.
# [2] = Phase 1 study of Minnelide Capsules alone or in combination with protein-bound paclitaxel in patients with Advanced Solid Tumors; type: in vivo, human
# Excerpt: Oral Minnelide. A Phase 1, Multi-Center, Open-Label, Dose-Escalation, Safety, Pharmacokinetic, and Pharmacodynamic Study of Minnelide™ Capsules given alone or in combination with protein-bound paclitaxel in patients with Advanced Solid Tumors.
# A total of 51 patients have been enrolled and dosed in the Phase 1 study, of whom […] were evaluable for safety (34 in the monotherapy regimen and 16 in the combination regimen). Twenty-nine patients have completed treatment in the monotherapy regimen, and 6 dose escalations have occurred. In the monotherapy regimen, one DLT has been observed, which occurred in the 1.25 mg cohort. […] As a result of this DLT, and out of an abundance of caution, 3 additional patients were enrolled in the 1.0 mg cohort.
# A total of 17 patients had been enrolled in combination therapy regimen. Two DLTs have been observed: one at the 0.25 mg minnelide and 125 mg/m^2 protein-bound paclitaxel dose level and one at the 0.25 mg minnelide and 100 mg/m^2 protein-bound paclitaxel dose level. […] A total of 2 SAEs occurred in this patient, neither of which were deemed related to the IP. As this was the first patient in the combination regimen to receive protein-bound paclitaxel with minnelide, the combination regimen was put on enrolment hold until further escalation parameters were introduced. The second DLT occurred in the first patient of the 0.25 mg minnelide and 100 mg/m^2 protein-bound paclitaxel cohort: a Grade 5 event of sepsis.
# [3] = test system: pancreatic and ovarian tumor cells; assay: In vitro antitumor activity (activated with alkaline phosphatase to release triptolide); type: cell-based
# [4] = test system: pancreatic and ovarian cancer; assay: Daily administration in models of pancreatic and ovarian cancer; type: in vivo; conditions: administered daily
# [5] = Blood counts of patients during minnelide dosing and withholding; type: in vivo, human
# Excerpt: A drop in blood counts is usually seen within the first 5-7 days of the start of minnelide and resolves in 4-8 days of withholding of minnelide.
# CBC with differential was done on days 1, 8, 15, 22 and more frequently as clinically indicated. Patient were hospitalized for close monitoring when the ANC level was <1000 mm^3 (grade 3 or higher) or platelet was <100,000 cells/mm^3 at any time. Minnelide™ Capsules would not resume until the ANC level was ≥1500 mm^3 or platelet was ≥100,000 cells/mm^3.
# [6] = test system: extracellular matrix (ECM) of the pancreatic tumors; conditions: by downregulating hyaluronan synthesis and preventing collagen cross linking; cited from earlier work
# [7] = test system: transforming growth factor-β (TGFβ) signaling in cancer associated fibroblasts (CAFs); conditions: dose of 0.2 mg/kg; cited from earlier work
# [8] = test system: MIA-PaCa2 and PANC-1 pancreatic cancer cell lines; conditions: after incubation with triptolide; cited from earlier work
# [9] = test system: S2-013, S2-VP10 and Hs766T; conditions: metastatic lines; cited from earlier work
# [10] = test system: pancreatic tumor cells and CAFs; conditions: cited from earlier work
# [11] = Day 28, minnelide 0.15 mg/kg QD PO added to Gem/Abx 250/25 mg/kg, compared with Gem/Abx alone
# [12] = Day 28, minnelide 0.21 mg/kg QD PO added to Gem/Abx 250/25 mg/kg, compared with Gem/Abx alone
# [13] = overall, daily oral minnelide concurrently with Gem/Abx, compared with minnelide or Gem/Abx alone
# [14] = oral, monotherapy and combination
smiles,measurement,setting,value
"CC(C)[C@]12O[C@H]1[C@@H]1O[C@]13[C@]1(O[C@H]1C[C@H]1C4=C(CC[C@@]13C)C(=O)OC4)[C@@H]2OCOP(=O)([O-])[O-].[Na+].[Na+] [minnelide, disodium; [(1S,2S,4S,5S,7S,8R,9R,11S,13S)-1-methyl-17-oxo-7-propan-2-yl-3,6,10,16-tetraoxaheptacyclo[11.7.0.0^2,4.0^2,9.0^5.7.09^,11.0^14,18]icos-14 (18)-en-8-yl]oxymethyl phosphate]",tumor volumes,S2-VP10 tumor cells; [11],further reduced
same,tumor weights,S2-VP10 tumor cells; [11],further reduced
same,tumor volumes,S2-VP10 tumor cells; [12],further reduced
same,tumor weights,S2-VP10 tumor cells; [12],further reduced
same,tumor volumes,S2-VP10 tumor cells; [13],decreased
same,tumor weights,S2-VP10 tumor cells; [13],decreased
same,"Anemia and thrombocytopenia Grade 3 and 4, drug related, patients",[1],22%
same,Serious Adverse Events related to the study drug,[1],six
same,"Serious Adverse Events, total",[1],28
same,"TEAEs leading to discontinuation probably related to study drug, considered DLTs",[1],two
same,"neutropenia grade 3 and 4 of short duration, drug related",[1],observed at all dose levels
same,patients with Serious Adverse Events,[1],17
same,patients with at least 1 AE considered related to the study drug,[1],32
same,"patients with neutropenic fever and neutropenic infection, drug related",[1],three
same,deaths in the study,"[1]; 42 patients dosed, within 30-day follow-up, not related to study drug",6
same,patients who discontinued the study drug due to TEAEs,[1]; all Grade 3,3
same,incidence of most commonly reported TEAEs regardless of causality,"[1]; hypoalbuminemia, anemia, hypoproteinemia, fatigue, neutropenia, leukopenia, thrombocytopenia, nausea, hypocalcemia, diarrhea, hyperphosphatemia, constipation, vomiting, hyponatremia, lymphopenia, abdominal pain, dehydration, hyperglycemia, peripheral edema, hypophosphatemia, headache",> 20%
same,"other possibly related side effects of any grade, patients","[1]; nausea, vomiting, diarrhea, constipation, anorexia, stomatitis, cerebellar toxicity, embolism, dyspnea",≤ 3%
same,time to resolution of neutropenia,[1]; not receiving treatment,within a couple of days
same,DLTs in five additional patients,[2]; 0.25 mg minnelide and 100 mg/m^2 protein-bound paclitaxel cohort,no DLTs observed
same,DLTs observed,"[2]; 0.25 mg minnelide and 100 mg/m^2 protein-bound paclitaxel dose level, Grade 5 sepsis",one
same,DLTs observed,[2]; 0.25 mg minnelide and 125 mg/m^2 protein-bound paclitaxel dose level,one
same,DLTs observed,"[2]; combination regimen with protein-bound paclitaxel, 17 patients",Two
same,DLT observed,"[2]; oral monotherapy regimen, in the 1.25 mg cohort, Grade 5 sepsis",one
same,related SAEs by type,"[2]; oral, combination therapy with protein-bound paclitaxel",one event each of Grade 5 sepsis and Grade 2 esophagitis
same,SAEs related to the investigational product,[2]; [14],8
same,"SAEs, total",[2]; [14],45
same,patients with SAEs,[2]; [14],25
same,related SAEs by type,"[2]; oral, patients on monotherapy","1 event each of Grade 5 sepsis, Grade 4 sepsis, Grade 3 nausea, Grade 3 polymicrobial bacteraemia, Grade 3 intractable nausea, Grade 3 hypokalaemia, and Grade 2 enteritis"
same,AE incidence: Lower extremity oedema,[2]; regardless of causality,24%
same,AE incidence: abdominal distension,[2]; regardless of causality,12%
same,AE incidence: abdominal pain,[2]; regardless of causality,30%
same,AE incidence: anemia,[2]; regardless of causality,18%
same,AE incidence: back pain,[2]; regardless of causality,12%
same,AE incidence: chills,[2]; regardless of causality,12%
same,AE incidence: constipation,[2]; regardless of causality,24%
same,AE incidence: dehydration,[2]; regardless of causality,18%
same,AE incidence: dizziness,[2]; regardless of causality,12%
same,AE incidence: dyspnoea,[2]; regardless of causality,12%
same,AE incidence: fatigue,[2]; regardless of causality,18%
same,AE incidence: gastroesophageal reflux disease,[2]; regardless of causality,12%
same,AE incidence: leukopenia,[2]; regardless of causality,12%
same,AE incidence: local swelling,[2]; regardless of causality,18%
same,AE incidence: nausea,[2]; regardless of causality,24%
same,AE incidence: neutropenia,[2]; regardless of causality,30%
same,AE incidence: neutrophil count decreased,[2]; regardless of causality,13%
same,AE incidence: pain,[2]; regardless of causality,12%
same,AE incidence: pleural effusion,[2]; regardless of causality,12%
same,AE incidence: pyrexia,[2]; regardless of causality,24%
same,AE incidence: skin irritation,[2]; regardless of causality,12%
same,AE incidence: vomiting,[2]; regardless of causality,18%
same,antitumor activity in vitro,[3],potent antitumor activity
same,animal survival,[4],markedly improved
same,tumor volumes,[4],significantly reduced
same,tumor weights,[4],significantly reduced
same,time to drop in blood counts,[5]; from the start of minnelide,5 to 7 days
same,time to resolution of drop in blood counts,[5]; withholding of minnelide,4 to 8 days
same,extracellular matrix (ECM) of pancreatic tumors,[6],depleted
same,TGFβ signaling in CAFs,[7],disrupts
CC(C)[C@]12O[C@H]1[C@@H]1O[C@]13[C@]1(O[C@H]1C[C@H]1C4=C(CC[C@@]13C)C(=O)OC4)[C@@H]2O [triptolide],caspase-3 activity,[8],significantly increased
same,cytochrome c release from mitochondria into the cytosol,[8],significantly increased
same,autophagic cell death,[9],induces autophagic cell death
same,"SE-associated genes (BRD4, MYC, RNA Pol II, Collagen 1) expression","[10]; both cell types, mRNA and protein levels",downregulation
same,cytotoxicity,[10]; both pancreatic tumor cells and CAFs,cytotoxic
